Data: PubChem BioAssay (NCI)
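Briefly, cells in 96-well plates were exposed to five compound concentrations for 48 h, and endpoints were estimated by linear interpolation. GI50: concentration for 50% inhibition of growth. TGI marks complete inhibition of growth.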

How the values were obtained:
Experiment in all cases: NCI anticancer screen, dose series, 48 h
[1] = tested on: OVCAR-4 ovarian
[2] = tested on: HCT-15 colon
[3] = tested on: RPMI-8226 leukemia
[4] = tested on: EKVX NSCLC
[5] = tested on: COLO 205 colon
[6] = tested on: LOX IMVI melanoma
[7] = tested on: UO-31 renal
[8] = tested on: SF-268 CNS
[9] = tested on: HOP-62 NSCLC
[10] = tested on: HS 578T breast
[11] = tested on: NCI-H226 lung
[12] = tested on: SK-MEL-2 melanoma
[13] = tested on: MOLT-4 leukemia
[14] = tested on: DU-145 prostate
[15] = tested on: OVCAR-5 ovarian
[16] = tested on: MALME-3M melanoma
[17] = tested on: MDA-MB-435
[18] = tested on: U251 CNS
[19] = tested on: 786-0 renal
[20] = tested on: A549 NSCLC
[21] = tested on: KM12 colon
[22] = tested on: SF-295 CNS
[23] = tested on: HL-60(TB) leukemia
[24] = tested on: SW-620 colon
[25] = tested on: HT29 colon
[26] = tested on: SK-OV-3 ovarian
[27] = tested on: NCI-H23 lung
[28] = tested on: PC-3 prostate
[29] = tested on: SK-MEL-5 melanoma
[30] = tested on: RXF 393 renal
[31] = tested on: BT-549 breast
[32] = tested on: MCF7 breast
[33] = tested on: IGROV1 ovarian
[34] = tested on: TK-10 renal
[35] = tested on: CCRF-CEM leukemia
[36] = tested on: HCT-116 colon
[37] = tested on: SK-MEL-28 melanoma
[38] = tested on: UACC-257 melanoma
[39] = tested on: OVCAR-3 ovarian
[40] = tested on: OVCAR-8 ovarian
[41] = tested on: NCI/ADR-RES ovarian
[42] = tested on: SNB-75 CNS
[43] = tested on: HCC-2998 colon
[44] = tested on: ACHN renal
[45] = tested on: M14 melanoma
[46] = tested on: SNB-19 CNS
[47] = tested on: T-47D breast
[48] = tested on: UACC-62 melanoma
[49] = tested on: SR leukemia
[50] = tested on: K-562 leukemia
[51] = tested on: CAKI-1 renal
[52] = tested on: SN12C renal
[53] = tested on: MDA-MB-231 breast
[54] = tested on: NCI-H522 lung
[55] = tested on: HOP-92 NSCLC
[56] = tested on: A498 renal
[57] = tested on: NCI-H460 lung
[58] = tested on: SF-539 CNS

With `C[N+]1([O-])CCC(O)(C2CC2)CC1` (centres undefined) the TGI [1] was > 100 µM, the TGI [2] was > 100 µM and the TGI [3] was > 100 µM. The TGI [4] was > 100 µM, the TGI [5] was > 100 µM and the TGI [6] was > 100 µM. The TGI [7] was > 100 µM, the TGI [8] was > 100 µM and the TGI [9] was > 100 µM. For the same compound, the TGI [10] was > 100 µM, the TGI [11] was > 100 µM and the TGI [12] was > 100 µM. The TGI [13] was > 100 µM, the TGI [14] was > 100 µM and the TGI [15] was > 100 µM. For the same compound, the TGI [16] was > 100 µM, the TGI [17] was > 100 µM and the TGI [18] was > 100 µM. The TGI [19] was > 100 µM, the TGI [20] was > 100 µM and the TGI [21] was > 100 µM. The TGI [22] was > 100 µM, the TGI [23] was > 100 µM and the TGI [24] was > 100 µM. The TGI [25] was > 100 µM, the TGI [26] was > 100 µM and the TGI [27] was > 100 µM. For the same compound, the TGI [28] was > 100 µM, the TGI [29] was > 100 µM and the TGI [30] was > 100 µM. The TGI [31] was > 100 µM, the TGI [32] was > 100 µM and the TGI [33] was > 100 µM. For the same compound, the TGI [34] was > 100 µM, the TGI [35] was > 100 µM and the TGI [36] was > 100 µM. For the same compound, the TGI [37] was > 100 µM, the TGI [38] was > 100 µM and the TGI [39] was > 100 µM. The TGI [40] was > 100 µM, the TGI [41] was > 100 µM and the TGI [42] was > 100 µM. The TGI [43] was > 100 µM, the TGI [44] was > 100 µM and the TGI [45] was > 100 µM. The TGI [46] was > 100 µM, the TGI [47] was > 100 µM and the TGI [48] was > 100 µM. The TGI [49] was > 100 µM, the TGI [50] was > 100 µM and the TGI [51] was > 100 µM. The TGI [52] was > 100 µM and the TGI [53] was > 100 µM.

`C=C1C(=O)O[C@@H]2[C@@H]3O[C@@H](C[C@@H]13)[C@](C)(O)CC/C=C(\C)CCC[C@H]2C` was tested, and the GI50 [1] was 2.38 µM, the TGI [1] was > 23 µM and the GI50 [2] was 1.39 µM. The TGI [2] was 2.74 µM, the GI50 [3] was 0.258 µM and the TGI [3] was 1.47 µM. For the same compound, the GI50 [4] was 7.55 µM, the TGI [4] was 20 µM and the GI50 [6] was 1.51 µM. For the same compound, the TGI [6] was 3 µM, the GI50 [54] was 1.65 µM and the TGI [54] was 4.05 µM. The GI50 [55] was 0.5 µM, the TGI [55] was 2.39 µM and the GI50 [7] was 1.25 µM. The TGI [7] was 2.79 µM, the GI50 [56] was 20.9 µM and the TGI [56] was 35.5 µM. For the same compound, the GI50 [8] was > 100 µM, the TGI [8] was > 100 µM and the TGI [9] was 31.7 µM. For the same compound, the GI50 [10] was 5.99 µM, the TGI [10] was 24.9 µM and the GI50 [11] was 2.08 µM. For the same compound, the TGI [11] was 7.4 µM, the GI50 [12] was 9.32 µM and the TGI [12] was 24.2 µM. For the same compound, the GI50 [13] was 1.39 µM, the TGI [13] was 3.37 µM and the GI50 [14] was 3.08 µM. The TGI [14] was 12.6 µM, the GI50 [15] was 3.19 µM and the TGI [15] was 12.6 µM. The GI50 [16] was 0.18 µM, the TGI [16] was 2.61 µM and the GI50 [17] was 1.97 µM. It also gave a TGI [17] of 6.17 µM, a GI50 [18] of 2.84 µM and a TGI [18] of 12.8 µM. For the same compound, the GI50 [19] was 2.56 µM, the TGI [19] was 9.03 µM and the GI50 [20] was 9.21 µM. The TGI [20] was 25.2 µM, the GI50 [21] was 6.35 µM and the TGI [21] was 18.1 µM. For the same compound, the GI50 [22] was 9.38 µM, the TGI [22] was 23.9 µM and the GI50 [24] was 0.739 µM. For the same compound, the TGI [24] was 2.31 µM, the GI50 [25] was 3.69 µM and the TGI [25] was > 33.9 µM. For the same compound, the GI50 [26] was 28.7 µM, the TGI [26] was > 50.4 µM and the TGI [27] was 3.67 µM. For the same compound, the GI50 [28] was 1.76 µM, the TGI [28] was 5.27 µM and the GI50 [29] was 5.57 µM. The TGI [29] was 13.9 µM, the GI50 [30] was 1.77 µM and the GI50 [31] was 1.84 µM. The TGI [31] was 4.86 µM, the GI50 [32] was > 100 µM and the TGI [32] was > 100 µM. It also gave a GI50 [33] of 1.06 µM, a TGI [33] of 4.92 µM and a GI50 [34] of 1.5 µM. The TGI [34] was 3.26 µM, the GI50 [35] was 0.394 µM and the TGI [35] was 1.91 µM. The GI50 [37] was 2.36 µM, the TGI [37] was > 21.8 µM and the GI50 [57] was > 100 µM. The TGI [57] was > 100 µM, the GI50 [38] was 4.9 µM and the TGI [38] was 14.9 µM. The GI50 [39] was 1.65 µM, the TGI [39] was 3.86 µM and the GI50 [40] was 1.91 µM. The TGI [40] was 10.4 µM, the GI50 [41] was 0.523 µM and the TGI [41] was 2.13 µM. For the same compound, the GI50 [42] was 14.1 µM, the TGI [42] was > 35.8 µM and the GI50 [58] was 13 µM. For the same compound, the TGI [58] was 25.7 µM, the GI50 [43] was 0.83 µM and the TGI [43] was 3.88 µM. For the same compound, the GI50 [44] was 0.926 µM, the TGI [44] was 2.34 µM and the GI50 [45] was 1.83 µM. For the same compound, the TGI [45] was 3.75 µM, the GI50 [46] was 29 µM and the TGI [46] was > 49 µM. For the same compound, the TGI [47] was > 22.6 µM, the GI50 [48] was 3.51 µM and the TGI [48] was 14.1 µM. For the same compound, the GI50 [49] was 0.395 µM, the TGI [49] was 2.05 µM and the GI50 [50] was 0.416 µM. For the same compound, the TGI [50] was 4.01 µM, the GI50 [51] was 0.957 µM and the TGI [51] was 2.59 µM. The GI50 [52] was 2.06 µM, the TGI [52] was 6.64 µM and the GI50 [53] was 1.51 µM. The TGI [53] was 4.14 µM.
